# Results from US20010056104A1, “Treatment of ocular hypertension and glaucoma” (priority 2000, published 2001).
# Where two headings read alike, the source gives them in different places.
# How the values were obtained:
# [1] = test system: prostaglandin receptor sites in bovine corpus luteal membranes; assay: Ligand binding assay in bovine corpus luteal membranes; conditions: for displacement of bound 3H-unoprostone isopropyl by unlabeled competing ligand: competition studies; for binding to PG receptor sites: in words
# Description: (§1) In ligand binding studies, the specificity of labeled unoprostone isopropyl and the metabolite binding to prostaglandin receptor sites in bovine corpus luteal membranes was determined. This tissue expresses most of the PG receptors including an abundance of FP receptors. In signal transduction studies, the mobilization of intracellular calcium using Fluorescence Imaging technique in the primary culture of human ciliary muscle cells and cyclic AMP generation in rabbit iris-ciliary body was measured.
# This method is well described in the literature. […] Free unbound ligands were separated by rapid filtration using a millipore filtration assembly. Membrane bound radioactivity retained by the filter was counted. It is important to define the following terms for appreciation of the binding data:
# Total binding is defined as the amount bound in the absence of unlabeled ligand.
# Specific binding is defined as the binding displaced by unlabeled ligand.
# Non-specific binding is the binding not displaced by unlabeled ligand.
# [2] = test system: human ciliary muscle cells; assay: Intracellular calcium mobilization (Fura 2-AM) in human ciliary muscle cells; assay type: cell-based; conditions: for affinity for EP1 or FP or TP receptors: suggested by inability to mobilize intracellular calcium
# Description: as §1
# Human ciliary muscle cells at confluency were loaded with Fura 2-AM. Cells in a petri dish were put in a jacketed chamber mounted on the microscope platform. The chamber was maintained at 37° C. by thermostatically controlled water circulating through the chamber jacket. The cells were then exposed to the excitation wavelengths of 334 and 380 nm with an emission wavelength of 510 nm. Cells were perfused with HEPES buffer with or without test compounds. The intracellular calcium was visualized and photographed using Attofluor RatioVision software program and Zeiss fluorescence microscope.
# [3] = biological target: EP2-receptors (Cavia porcellus, UniProt A0A286XDB1); assay: EP2-receptor activity, guinea-pig ileum twitch inhibition; assay type: cell-based; conditions: for EC50: smooth muscle bath, guinea-pig ileum
# EP2-receptors, sequence (A0A286XDB1 1-359): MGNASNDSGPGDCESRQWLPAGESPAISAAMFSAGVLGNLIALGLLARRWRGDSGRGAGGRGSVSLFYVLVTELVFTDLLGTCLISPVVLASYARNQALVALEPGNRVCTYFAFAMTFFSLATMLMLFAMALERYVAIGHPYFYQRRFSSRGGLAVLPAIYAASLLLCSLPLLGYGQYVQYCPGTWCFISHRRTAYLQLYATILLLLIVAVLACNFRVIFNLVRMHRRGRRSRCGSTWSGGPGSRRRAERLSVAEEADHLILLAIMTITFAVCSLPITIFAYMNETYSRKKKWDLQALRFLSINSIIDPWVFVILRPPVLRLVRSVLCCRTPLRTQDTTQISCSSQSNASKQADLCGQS
# Description: Segments of guinea-pig ileum were used to study the effect on EP2-receptors. Male guinea pigs were killed with a blow to the head and bled from the carotid arteries. Circular rings (2-3 mm wide) were taken from the ileum about 10 cm from the caecum, A resting tension of 1 g was applied and the preparation was stimulated by using a Gras S88 stimulator delivering trains of square pulses (frequency 7.5 Hz, pulse duration 0.1 msec, train duration 4 sec) to two parallel platinum electrodes in the bath. The voltage over the electrodes was approximately 20V, and the interval between trains was 100 seconds. The peak contractile force at each stimulation train was measured. Test compounds were added cumulatively, and the inhibitory effect on the muscle twitch was evaluated. […] Concentration-effect curves were fitted to the data using the logistic sigmoid function.
# [4] = biological target: FP-receptor (Felis catus, UniProt A0ABI7XJ69); assay: Functional FP-receptor study, cat iris sphincter muscle contraction; assay type: cell-based; conditions: for EC50: text restating Table I, read-out: concentration needed to stimulate the FP-receptor at 50% efficacy
# FP-receptor, sequence (A0ABI7XJ69 entry or part of it): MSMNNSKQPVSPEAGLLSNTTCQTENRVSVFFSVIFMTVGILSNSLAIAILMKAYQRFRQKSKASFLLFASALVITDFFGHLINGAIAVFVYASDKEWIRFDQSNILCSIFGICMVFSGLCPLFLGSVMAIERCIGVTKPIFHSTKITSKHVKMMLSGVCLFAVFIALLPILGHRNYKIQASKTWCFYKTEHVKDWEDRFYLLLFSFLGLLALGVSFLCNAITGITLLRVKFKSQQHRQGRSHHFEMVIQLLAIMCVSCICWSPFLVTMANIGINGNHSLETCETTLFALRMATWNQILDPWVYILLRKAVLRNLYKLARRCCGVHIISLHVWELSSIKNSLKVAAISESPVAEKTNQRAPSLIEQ
# Description: Functional FP-receptor studies were performed using iris sphincter muscles from cat eyes. The eyes were either used directly after enucleation or stored in ice cold saline overnight. The iris sphincter muscles were prepared, cut in halfs, and mounted in thermostated (37° C.) tissue baths with oxygenated modified Kreb's solution containing indomethacin (2.8×10^−6 M), atropine (10^−7 M) and propranolol (10^−7 M). A resting tension of 150 mg was applied, and the contractile force was measured isometrically after cumulative dosing of test compounds. A manual or automated tissue bath system (Buxco, STC 400) was used for the experiments. For each tissue sample the maximal response was normalized to 100%. The mean response of two to four different preparations was calculated.
# (§2) Concentration-effect curves were fitted to the data using the logistic sigmoid function.
# [5] = biological target: T1, EP1-receptor (Bos taurus, UniProt F1MUY4); assay: EP1-receptor activity, bovine iris sphincter muscle; assay type: cell-based
# T1 sequence (F1MUY4 1-407): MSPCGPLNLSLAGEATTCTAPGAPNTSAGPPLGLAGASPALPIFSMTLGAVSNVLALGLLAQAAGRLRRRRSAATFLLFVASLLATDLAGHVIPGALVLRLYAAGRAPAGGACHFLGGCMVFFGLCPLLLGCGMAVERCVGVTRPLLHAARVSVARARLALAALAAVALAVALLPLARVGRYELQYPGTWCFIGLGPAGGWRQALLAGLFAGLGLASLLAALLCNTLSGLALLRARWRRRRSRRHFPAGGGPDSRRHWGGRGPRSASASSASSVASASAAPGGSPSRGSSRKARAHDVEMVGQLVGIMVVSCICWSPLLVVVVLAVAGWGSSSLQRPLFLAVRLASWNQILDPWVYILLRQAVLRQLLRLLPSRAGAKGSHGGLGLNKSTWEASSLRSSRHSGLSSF
# Description: Iris sphincter muscles from bovine eyes were used for studies of EP1-receptor responses. Freshly enucleated bovine eyes were transported on ice from a slaughterhouse.
# as §2
# [6] = biological target: T2, EP3-receptors (Cavia porcellus, UniProt A0A286XLZ9); assay: EP3-receptor activity, guinea-pig vas deferens; assay type: cell-based; conditions: for EC50: smooth muscle bath, guinea-pig vas deferens
# T2 sequence (A0A286XLZ9 with tags, fused parts or gaps): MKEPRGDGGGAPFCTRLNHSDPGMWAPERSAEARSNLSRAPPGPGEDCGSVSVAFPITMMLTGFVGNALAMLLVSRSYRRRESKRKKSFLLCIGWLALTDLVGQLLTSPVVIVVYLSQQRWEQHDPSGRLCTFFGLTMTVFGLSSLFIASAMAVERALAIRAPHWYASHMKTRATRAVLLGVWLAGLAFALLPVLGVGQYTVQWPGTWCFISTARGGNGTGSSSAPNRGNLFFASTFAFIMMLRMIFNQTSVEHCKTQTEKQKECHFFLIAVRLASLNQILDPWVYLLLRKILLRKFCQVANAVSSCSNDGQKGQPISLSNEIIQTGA
# Description: Guinea-pig vas deferens was used to assess the effect on EP3-receptors. Tissue segments of about 10 mm were mounted in tissue baths and the experiments were performed essentially in the same way as described for the guinea-pig circular ileum. Concentration-effect curves were fitted to the data using the logistic sigmoid function.
# [7] = biological target: FP receptor (Homo sapiens, UniProt P43088); conditions: background statement; cited from earlier work
# FP receptor, sequence (P43088 whole entry): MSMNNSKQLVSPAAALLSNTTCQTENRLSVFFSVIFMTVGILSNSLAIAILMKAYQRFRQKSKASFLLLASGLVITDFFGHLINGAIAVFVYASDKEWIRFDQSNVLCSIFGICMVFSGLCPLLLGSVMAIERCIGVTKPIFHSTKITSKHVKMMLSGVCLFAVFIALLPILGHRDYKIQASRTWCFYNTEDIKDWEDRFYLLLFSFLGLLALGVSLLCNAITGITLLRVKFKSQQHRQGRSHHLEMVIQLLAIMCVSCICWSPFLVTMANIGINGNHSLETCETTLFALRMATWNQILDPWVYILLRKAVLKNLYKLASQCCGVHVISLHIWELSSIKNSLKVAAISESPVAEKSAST
# [8] = cynomolgus monkeys; cited from earlier work
# [9] = treated for about three or more months; cited from earlier work
# [10] = test system: PGF2α receptors; conditions: free acid form; contraction of cat iris sphincter; cited from earlier work
# [11] = biological target: T3, PGF2α receptors (Bos taurus, UniProt P37289); conditions: free acid form; bovine corpus luteum; cited from earlier work
# T3 construct: host or cells: bovine corpus luteum
# T3 sequence (P37289 whole entry): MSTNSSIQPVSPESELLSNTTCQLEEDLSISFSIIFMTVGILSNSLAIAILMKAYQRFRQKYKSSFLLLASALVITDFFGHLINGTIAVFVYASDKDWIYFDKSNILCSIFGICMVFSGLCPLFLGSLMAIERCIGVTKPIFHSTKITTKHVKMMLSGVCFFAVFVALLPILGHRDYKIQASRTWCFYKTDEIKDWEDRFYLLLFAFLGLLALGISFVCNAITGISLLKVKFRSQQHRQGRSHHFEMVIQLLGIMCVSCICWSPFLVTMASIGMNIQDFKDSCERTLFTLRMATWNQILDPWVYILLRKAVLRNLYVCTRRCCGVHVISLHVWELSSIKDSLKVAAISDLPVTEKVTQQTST
# [12] = long-term monkey trial, preliminary published results; cited from earlier work
# [13] = competing ligand PGF2α 0.062 μM
# [14] = radioligand conc. 8.0 nM (3H-PGF2α)
# [15] = concentrations ranging from 10-1000 nM
# [16] = competing ligand unoprostone isopropyl 2.5 μM
# [17] = competing ligand unoprostone isopropyl 5.0 μM
# [18] = competing ligand unoprostone isopropyl 8.0 μM
# [19] = competing ligand unoprostone isopropyl 16.0 μM
compound,measurement,setting,value
17-Phenyl trinor PGE1,displacement of bound 3H-unoprostone isopropyl by unlabeled competing ligand,[1],did not displace
O=C(O)CCC/C=C\C[C@@H]1[C@@H](/C=C/[C@@H](O)COc2cccc(C(F)(F)F)c2)[C@H](O)C[C@@H]1O (racemic) [Fluprostenol],mobilization of intracellular calcium,"[2]; FP receptor agonist control, concentration not given",mobilized calcium
O=C(O)CCCC=CCC1C(O)CC(O)C1CCC(=O)CCc1ccccc1 (stereo not shown) [15-keto Latanoprost Acid],activity on EP2 receptor,[3]; in words,virtually no activity
same,EC50,[3],> 100 µM
same,potency on the FP receptor relative to latanoprost acid,[4]; from Table I EC50 values,at least ten times less potent
same,EC50,[4],0.26 µM
same,activity on EP1 receptor,[5]; in words,virtually no activity
same,EC50,"[5]; read-out: EC50 EP1, smooth muscle bath, bovine iris sphincter",28 µM
same,activity on EP3 receptor,[6]; in words,virtually no activity
same,EC50,[6],> 100 µM
O=C(O)CCCCCCC1C(=O)NC(=O)N1CCC(O)C1CCCCC1 (stereo not shown) [BW245C],displacement of bound 3H-unoprostone isopropyl by unlabeled competing ligand,[1],did not displace
CCCC1([C@H](O)C/C=C/[C@H]2[C@H](O)CC(=O)[C@@H]2CCCCCCC(=O)OC)CCC1 [Butaprost],displacement of bound 3H-unoprostone isopropyl by unlabeled competing ligand,[1],did not displace
O=C(O)CCC/C=C\C[C@@H]1[C@@H](CC[C@@H](O)CCc2ccccc2)[C@H](O)C[C@@H]1O [Latanoprost Acid],EC50,[3],530 µM
same,EC50,[4],0.01 µM
same,EC50,[6],28 µM
"CC(C)OC(=O)CCC/C=C\C[C@@H]1[C@@H](CC[C@@H](O)CCc2ccccc2)[C@H](O)C[C@@H]1O [Latanoprost, 13,14-dihydro-17-phenyl-18,19,20-trinor PGF2α isopropyl ester]",specific binding affinity for the FP receptor,[7],substantial specific binding affinity
same,receptor selectivity (FP vs other prostaglandin receptors),[4]; from Table I,selective agonist for the FP receptor
same,iridial pigmentation,[8],induced increased iridial pigmentation
same,human patients with brown pigmentation of the iris,[9],≥ 10%
CCCCCC(O)C=CC1C(O)CC(=O)C1CC=CCCCC(=O)OC(C)C (stereo not shown) [PGE2-IE],iridial pigmentation,[8],induced increased iridial pigmentation
CCCCC[C@H](O)/C=C/[C@@H]1[C@@H](C/C=C\CCCC(=O)OC(C)C)[C@@H](O)C[C@H]1O [PGF2α-IE],iridial pigmentation,[8],induced increased iridial pigmentation
CCCCC[C@H](O)/C=C/[C@@H]1[C@@H](C/C=C\CCCC(=O)O)[C@@H](O)C[C@H]1O [PGF2α],specific binding to bovine corpus luteal membranes (in words),[1],bound specifically
same,Specific Binding (3H-PGF2α),[1]; [13],0.07 fmoles/mg Protein
same,Total 3H-PGF2α binding,[1]; [13],0.56 fmol/mg protein
same,Specific Binding (3H-PGF2α),[1]; competing ligand PGF2α 0.25 μM,0.15 fmoles/mg Protein
same,Total 3H-PGF2α binding,[1]; competing ligand PGF2α 0.25 μM,0.56 fmol/mg protein
same,Specific Binding (3H-PGF2α),[1]; competing ligand PGF2α 0.5 μM,0.25 fmoles/mg Protein
same,Total 3H-PGF2α binding,[1]; competing ligand PGF2α 0.5 μM,0.56 fmol/mg protein
same,Specific Binding (3H-PGF2α),[1]; competing ligand PGF2α 8.0 μM,0.42 fmoles/mg Protein
same,Total 3H-PGF2α binding,[1]; competing ligand PGF2α 8.0 μM,0.56 fmol/mg protein
same,displacement of bound 3H-unoprostone isopropyl by unlabeled competing ligand,[1],did not displace
same,Specific Binding,[1]; radioligand conc. 2.0 nM,120.0 ± 15.0 fmoles/mg protein
same,Total Binding,[1]; radioligand conc. 2.0 nM,150.0 ± 16.0 fmoles/mg protein
same,Total Binding,[1]; radioligand conc. 4.0 nM,325.0 ± 25.0 fmoles/mg protein
same,Specific Binding,[1]; [14],423.0 ± 40.0 fmoles/mg protein
same,Total Binding,[1]; [14],505.0 ± 75.0 fmoles/mg protein
CCCCC[C@H](O)/C=C/[C@@H]1[C@@H](C/C=C\CCCC(=O)O)[C@H]2CO[C@@H]1C2 [U46619],displacement of bound 3H-unoprostone isopropyl by unlabeled competing ligand,[1],did not displace
CC#CCC(C)[C@H](O)/C=C/[C@@H]1[C@H]2C/C(=C/CCCC(=O)O)C[C@H]2C[C@H]1O (stereo partly shown) [iloprost],displacement of bound 3H-unoprostone isopropyl by unlabeled competing ligand,[1],did not displace
CCCCCCCC(=O)CC[C@@H]1[C@@H](C/C=C\CCCC(=O)O)[C@@H](O)C[C@H]1O [metabolite],agonistic activity to PGF2α receptors relative to PGF2α,[10],1/1600
same,binding to PG receptor sites,[1],does not bind
same,mobilization of intracellular calcium,[2]; [15],did not mobilize
same,affinity for EP1 or FP or TP receptors,[2],no affinity
same,binding inhibitory activity relative to PGF2α,[11],1/280
"CCCCCCCC(=O)CC[C@@H]1[C@@H](C/C=C\CCCC(=O)OC(C)C)[C@@H](O)C[C@H]1O [unoprostone isopropyl, 13,14-dihydro-15-keto-20-ethyl PGF2α isopropyl ester]",specific binding to bovine corpus luteal membranes (in words),[1],no specific binding sites
same,Total Binding,[1]; at 5 minutes,21.0 fmoles/mg protein
same,Specific Binding of 3H-unoprostone isopropyl,[1]; [16],0
same,Total 3H-unoprostone isopropyl binding,[1]; [16],7.0 ƒmoles/mg protein
same,Specific Binding of 3H-unoprostone isopropyl,[1]; [17],0
same,Total 3H-unoprostone isopropyl binding,[1]; [17],6.5 ƒmoles/mg protein
same,Specific Binding of 3H-unoprostone isopropyl,[1]; [18],0
same,Total 3H-unoprostone isopropyl binding,[1]; [18],6.7 ƒmoles/mg protein
same,Specific Binding of 3H-unoprostone isopropyl,[1]; [19],0
same,Total 3H-unoprostone isopropyl binding,[1]; [19],7.6 ƒmoles/mg protein
same,displacement of bound 3H-unoprostone isopropyl by unlabeled competing ligand,[1],did not displace
same,"binding to DP, EP1, EP2, EP3, IP and TP receptor sites",[1]; concluded from competition studies,does not bind
same,binding to PG receptor sites,[1],does not bind
same,specific binding to bovine corpus luteal membranes (in words),[1]; listed as 3H-unoprostone isopropyl,no specific binding
same,Total Binding,[1]; membrane protein conc. 50 μg,13.0 ± 2.0 (3) fmoles/mg protein
same,Total Binding,[1]; membrane protein conc. 100 μg,23.0 ± 6.0 (3) fmoles/mg protein
same,Total Binding,[1]; membrane protein conc. 200 μg,32.0 ± 8.0 (3) fmoles/mg protein
same,Specific Binding,[1]; radioligand conc. 8.0 nM,0 fmoles/mg protein
same,Total Binding,[1]; radioligand conc. 8.0 nM,19.4 ± 2.0 ƒmoles/mg protein
same,Specific Binding,[1]; radioligand conc. 16.0 nM,0 fmoles/mg protein
same,Total Binding,[1]; radioligand conc. 16.0 nM,25.5 ± 4.0 ƒmoles/mg protein
same,Specific Binding,[1]; radioligand conc. 32.0 nM,0 fmoles/mg protein
same,Total Binding,[1]; radioligand conc. 32.0 nM,40.0 ± 7.0 ƒmoles/mg protein
same,change of total binding with time,[1]; up to 60 minutes,did not increase with time
same,iridic pigmentation,[12],no iridic pigmentation
same,mobilization of intracellular calcium,[2]; [15],did not mobilize
same,affinity for EP1 or FP or TP receptors,[2],no affinity
